According to patent publication US8324216B2, “Substituted piperazines” (Chemocentryx, Inc., priority 2002, dated 2012):

What was measured:
[1] = tested on: LPS induced synovial inflammation in rabbit knee; experiment: Rabbit model of destructive joint inflammation (intra-articular LPS); assay type: in vivo, female New Zealand rabbits; conditions: for synovium inflammation score: 16 h, score 1 minimal, 2 mild, 3 moderate, 4 moderate-marked, vehicle 3
From the text: This study design mimics the destructive joint inflammation seen in arthritis. Intra-articular injection of LPS causes an acute inflammatory response characterized by the release of cytokines and chemokines, many of which have been identified in rheumatoid arthritic joints. Marked increases in leukocytes occur in synovial fluid and in synovium in response to elevation of these chemotactic mediators. Selective antagonists of chemokine receptors have shown efficacy in this model (see Podolin, et al., J. Immunol. 169(11):6435-6444 (2002)).
Sixteen hours after the LPS injection, knees were lavaged and cells counts performed. Beneficial effects of treatment were determined by histopathologic evaluation of synovial inflammation. The following inflammation scores were used for the histopathologic evaluation: 1—minimal, 2—mild, 3—moderate, 4—moderate-marked.

[2] = tested on: arthritis induced clinical ankle swelling; experiment: Rat model of collagen induced arthritis (17 day developing type II collagen arthritis); assay type: in vivo, female Lewis rats; conditions: 25 mg/kg sub-cutaneous daily day 0 till day 17
Method: A 17 day developing type II collagen arthritis study was conducted to evaluate the effects of compound 1.028 on arthritis induced clinical ankle swelling. Rat collagen arthritis is an experimental model of polyarthritis that has been widely used for preclinical testing of numerous anti-arthritic agents (see Trentham, et al., J. Exp. Med. 146(3):857-868 (1977), Bendele, et al., Toxicologic Pathol. 27:134-142 (1999), Bendele, et al., Arthritis Rheum. 42:498-506 (1999)). The hallmarks of this model are reliable onset and progression of robust, easily measurable polyarticular inflammation, marked cartilage destruction in association with pannus formation and mild to moderate bone resorption and periosteal bone proliferation. Female Lewis rats (approximately 0.2 kilograms) were anesthetized with isoflurane and injected with Freund's Incomplete Adjuvant containing 2 mg/mL bovine type II collagen at the base of the tail and two sites on the back on days 0 and 6 of this 17 day study. Compound 1.028 was dosed daily in a sub-cutaneous manner from day 0 till day 17 at a dose of 25 mg/kg and a volume of 1 mL/kg in the following vehicle (20% N,N-dimethylacetamide, 75% corn oil, 5% Tween-80). Caliper measurements of the ankle joint diameter were taken, and reducing joint swelling was taken as a measure of efficacy.

Cc1c(Cl)c(C(F)(F)F)nn1CC(=O)N1CCN(c2ccc(F)cc2)CC1 [CCX-105]
synovium inflammation score ([1]; dose 1=50 μM intra-articular with LPS 10 ng): 2 | synovium inflammation score ([1]; dose 2=100 μM intra-articular with LPS 10 ng): 1 | Inhibition of the inflammatory response ([1]; rabbit LPS intra-articular model): significantly and specifically inhibit the inflammatory response

COc1cc(N2CCN(C(=O)Cn3nc(C(F)(F)F)c(Cl)c3C)CC2)c(Cl)cc1Cl [Compound 1.028]
Inhibition of arthritis induced ankle swelling [2]: significantly and specifically inhibit the arthritis induced ankle swelling | change in joint diameter day9-day17 ([2]; vehicle 15.7% +/− 2.0%, normal 0% +/− 0.3%): 9.1% +/− 1.8%
